Measurements published in paper PMC6482291, “Anticonvulsant Activity of Pterostilbene in Zebrafish and Mouse Acute Seizure Tests” (Neurochemical Research, 2019).

Key:
[1] = tested on: zebrafish larvae; test: Toxicological assessment (maximum tolerated concentration) in zebrafish larvae; assay type: in vivo, Danio rerio; conditions: 4 dpf larvae, scored after 2 and 18 h of exposure; highest concentration without death or signs of toxicity
Protocol: Maximum tolerated concentration (MTC) was evaluated prior to further experiments. Briefly, 4 dpf zebrafish larvae (n = 12/group) were incubated with a range of PTE doses at 28.5 °C, for 18 h. The following parameters were scored after 2 and 18 h of exposure: touch response, posture, edema, morphology, signs of necrosis, swim bladder and heartbeat.

[2] = tested on: mice; test: Grip-strength test; assay type: in vivo; conditions: for Neuromuscular strength: 30 min before test
Protocol: The acute effect of PTE on the skeletal muscles strength in mice was determined in the grip strength test. The apparatus for this test (BioSeb, Chaville, France) consisted of a steel wire grid (8 × 8 cm) connected to an isometric force transducer. Each mouse was lifted by tail and allowed to grasp the grid with its forepaws and then it was gently pulled backward until its released the grid. The maximal force in newtons (N) exerted by mouse before leaving the grid was recorded. The mean of three consecutive measurements for each animal was calculated and normalized to body weight (mN/g).
Experimental groups consisted of 12 animals. Results obtained in the grip-strength test were compared using one-way ANOVA followed by the Tukey’s post-hoc multiple comparison test.

[3] = set-up: method as in PMID 25047917; conditions: after oral administration; cited from earlier work
[4] = tested on: maximal electroshock seizures; test: MES test (supramaximal stimulation); assay type: in vivo; conditions: ED50 could not be determined
[5] = tested on: 6 Hz-induced psychomotor seizures in mice; test: 6 Hz psychomotor seizure threshold test; assay type: in vivo; conditions: 30 min before test, 95% confidence limits in brackets
From the text: Psychomotor (limbic) seizures were induced by transcorneal stimulation (6 Hz, 0.2 ms rectangular pulse, 3 s duration) generated by a Grass S48 stimulator coupled with a constant current unit CCU1 (both from Grass Technologies, West Warwick, RI, USA). Before stimulation a drop of ocular anesthetic, 1% tetracaine hydrochloride solution, was applied into the animals’ corneas. The electrodes were soaked in saline to ensure the good electrical contact. During the stimulation animals were restrained manually and immediately after the stimulation were placed in a Plexiglas box for observation of presence or absence of the psychomotor seizures. These seizures were characterized by immobilization or stun, often associated with rearing, forelimb clonus, twitching of vibrissae and elevated tail (Straub-tail), lasting at least 10 s from the stimulation. Lack of the above symptoms or their cessation within 10 s from the stimulation was considered as absence of seizure activity.
In the present study two 6 Hz-induced psychomotor seizure tests were performed: (1) the 6 Hz psychomotor seizure threshold test which employed stimulation at varied current intensities, and (2) the 6 Hz psychomotor seizure test with supramaximal stimulation at 32 mA and 44 mA.
In the 6 Hz psychomotor seizures threshold test, threshold current intensity (CS50 in mA) was estimated in groups of 20 animals according to the above mentioned up-and-down method.

[6] = tested on: PTZ-induced seizures in mice; test: Timed iv PTZ seizure threshold test in mice; assay type: in vivo; conditions: for threshold for the first myoclonic twitch vs negative control: p < 0.001
Protocol: Each mice was placed in the cylindrical restrainer and the needle (27G, 3/4 in., Sterican®, B. Braun Melsungen AG, Melsungen, Germany) was injected into the lateral tail vein. The needle was attached by the polyethylene drain (PE20RW, Plastic One Inc. Roanoke, VA, USA) with the syringe containing 1% solution of PTZ (Sigma–Aldrich, St. Louis, MO, USA) in water and the syringe was located in the infuse pomp (model Physio 22, Hugo Sachs Elektronik–Harvard Apparatus GmbH, March-Hugstetten, Germany). The correct placement of the needle in the vein was confirmed based on the presence of the blood in the drain and the needle was protected against displacement by a peace of adhesive tape. Following injection, mice were took out from the restrainer and placed in the Plexiglas box for observation. The PTZ solution was infused into the vein at a constant rate of 0.2 ml/min. The time intervals from the start of infusion of PTZ solution to the beginning of three kinds of seizures, i.e., the first myoclonic twitch, generalized clonus with loss of the righting reflex and forelimb tonic extension, were noted. Infusion of PTZ solution was stopped immediately after onset of the tonic seizures, which usually were lethal. If animal survived the test, it was euthanized immediately. The threshold dose of PTZ (in mg/kg body weight) for each kind of seizures was calculated according to the following formula: PTZmg/kg=infusion durations×infusion rateml/s×PTZ concentrationmg/ml/weightkg
Experimental groups consisted of 9–13 animals. The data obtained in the iv PTZ test are presented as the threshold dose of PTZ (in mg/kg) + standard error of the mean (SEM) needed to elicit the respective kind of seizures. The data were analyzed by one-way ANOVA followed by the Tukey’s multiple comparison test. Statistical significance was noted when p values were equal or lower than 0.05.

[7] = tested on: PTZ-induced epileptiform discharges in zebrafish larvae; test: Electrographic discharge assessment (LFP recordings from optic tectum) in zebrafish larvae exposed to PTZ; assay type: in vivo, Danio rerio; conditions: 10 µM PTE, 2 h incubation, 20 mM PTZ, 20 min recording
Protocol: For local field potential (LFP) recordings, zebrafish larvae were incubated for 2 h, as described above. After incubation, larvae were exposed to vehicle or 20 mM PTZ for 5 min. Thereafter, larvae were immobilized in a thin layer of 2% low-melting-point agarose and the glass electrode (resistance […]) filled with artificial cerebrospinal fluid (124 mM NaCl, 2 mM KCl, 2 mM MgSO4, 2 Mm CaCl2, 1.25 mM KH2PO4, 26 mM NaHCO3, 10 mM glucose) was placed into the optic tectum (MultiClamp 700B amplifier, Digidata 1440A digitizer, Axon instruments, USA). Single recordings for each larva were performed for a period of 20 min. The discharges were analyzed according to the duration of spiking paroxysms and only those where the amplitude exceeded three times the background noise were taken into account. The data were analyzed with the aid of Clampfit 10.2 software (Molecular Devices Corporation, USA).

COc1cc(/C=C/c2ccc(O)cc2)cc(OC)c1 [PTE, trans-3,5-dimethoxy-4′-hydroxy-trans-stilbene]
Maximum tolerated concentration (MTC) [1]: 10 µM | Neuromuscular strength ([2]; PTE 50 mg/kg ip): 30.34 ± 1.16 mN/g | Neuromuscular strength ([2]; PTE 100 mg/kg ip): 29.14 ± 0.95 mN/g | Neuromuscular strength ([2]; PTE 200 mg/kg ip): 28.76 ± 2.16 mN/g | Neuromuscular strength ([2]; PTE 400 mg/kg ip): 30.39 ± 2.17 mN/g | Neuromuscular strength ([2]; PTE 600 mg/kg ip): 30.19 ± 0.97 mN/g | Neuromuscular strength ([2]; PTE 800 mg/kg ip): 31.12 ± 1.44 mN/g | influence on muscular strength ([2]; PTE 50 to 800 mg/kg ip): did not significantly influence | brain concentration of PTE relative to pterostilbene-4’sulphate (main metabolite) [3]: nearly fivefold higher | time of peak in brain tissue [3]: 2 h | anticonvulsant activity in the MES test [4]: lack of significant anticonvulsant activity | CS50 (psychomotor seizure threshold) ([5]; PTE 100 mg/kg ip, p < 0.01): 15.56 (14.18–17.08) mA | CS50 (psychomotor seizure threshold) ([5]; PTE 200 mg/kg ip, p < 0.001): 19.28 (17.15–21.66) mA | threshold for the first myoclonic twitch vs negative control ([6]; PTE 100 mg/kg ip, 30 min before test): Statistically significant increases | threshold for the first myoclonic twitch vs negative control ([6]; PTE 200 mg/kg ip, 30 min before test): Statistically significant increases | increase of threshold for generalized clonic seizures vs negative control ([6]; PTE 200 mg/kg ip, 30 min before test, p < 0.01): over 45% | threshold for tonic forelimb extension vs negative control ([6]; PTE 50 to 200 mg/kg ip, 30 min before test): did not significantly affect | time of highest anticonvulsant activity after ip administration (time-course effect) ([6]; iv PTZ test, data not shown): 30 min | mean duration of ictal-like discharges [7]: statistically significant reduction | number of epileptiform discharges in the zebrafish brain ([7]; vs vehicle): significantly reduced | total duration of epileptiform discharges in the zebrafish brain ([7]; vs vehicle): significantly reduced
